According to publication PMC10150366, “Discovery of an In Vivo Chemical Probe for BCL6 Inhibition by Optimization of Tricyclic Quinolinones” (Journal of Medicinal Chemistry, 2023):
Where “and” joins values, the source holds several entries; their conditions need not be identical. Equal values may be shown once. Read-outs that look alike come from different tables or passages of the source.

Legend:
[1] = target: human BCL6 BTB domain (Homo sapiens, UniProt P41182); test: BCL6 TR-FRET assay; type: binding; settings: for IC90: read-out: BCL6 TR-FRET IC90 Geometric Mean
Protocol: 1. Supplementary experimental: protein production, purification and crystallography 1.1 BCL6 constructs used for assays and crystallography […]
cleavage site. For the TR-FRET assay, the Trx-6His-HRV3C-BCL6 protein construct was used without cleaving the tag, as a 6His was needed to bind to the anti-6His-Terbium antibody. […]
For both plasmid constructs described above, transformed BL21-AI E. coli cells were grown in LB media […]
Expression was carried out at 18 °C for 18 hours. Cells were harvested by centrifugation (5500 g for 30 minutes at 4 °C) and stored at -80 °C.
Cells were re-suspended in a buffer composed of 20 mM Tris pH 8, 250 mM NaCl, 1 mM MgCl2, 0.5 mM […]
lysed by sonication followed by centrifugation at 21,000 g for 45 minutes at 4 °C. […]
ResourceQ and gel filtration using a HiLoad 26/60 Superdex75 column in a buffer containing 20 mM HEPES […]
The final protein was assessed for purity and molar mass by SDS-PAGE and high-resolution mass spectrometry, respectively.
For the uncleaved Trx-6His-HRV3C-BCL6 protein construct to be used in TR-FRET, the protein was directly eluted from the HisTrap FF column without HRV-3C treatment, and submitted to Superdex75 gel filtration […]
Test compounds in DMSO or DMSO alone […]
concentration in 0.7% v/v DMSO final. […]

[2] = target: T1, BCL6-SMRT (NCOR2) corepressor protein-protein interaction (Homo sapiens, UniProt P41182); test: NanoBRET cellular assay (HEK293T); type: cell-based
T1 construct: DNA encoding full length BCL6 and SMRT; expressed in transfected cells; host or cells: HEK293T
Protocol: Test compounds in DMSO or DMSO alone
concentration in 0.7% v/v DMSO final.
(also called NCOR2) corepressor protein-protein interaction. DNA encoding full length BCL6 and SMRT
fusion proteins BCL6-nanoLuc and SMRT-HaloTag, respectively. HEK293T cells were plated […] in T75
At the time of assay, compounds
dispensing (Labcyte Inc.). Frozen transfected HEK293T cells were thawed, centrifuged and freezing
DMSO final concentration.
After a short centrifugation the
(1st emission filter) / 450-80 nm (2nd emission filter). The % inhibition at each test concentration was
sigmoidal four-parameter logistic fit equation. […]

[3] = tested on: BCL6; settings: OCI-Ly1 cells, cited from earlier work; for DC50: read-out: MSD degrader assay [OCI-Ly1] DC50
[4] = cited from earlier work
[5] = tested on: Caco-2 human colon carcinoma cell line; settings: cited from earlier work; for CACO-2 (ER): efflux ratio
[6] = Microsomal clearance, mouse liver microsomes; settings: one value given; mouse microsomal clearance per text
[7] = Table S1, read-out: BCL6 TR-FRET pIC50 mean (converted)
[8] = geometric mean of at least three replicates, read-out: BCL6 TR-FRET IC50
[9] = HEK-293T, Table S2, read-out: BCL6 NanoBRET IC90 individual replicates
[10] = Table S2, read-out: BCL6 NanoBRET pIC50 mean (converted)
[11] = geometric mean of at least three replicates, read-out: NanoBRET IC50
[12] = single replicates, Table S2, read-out: BCL6 NanoBRET IC50 individual replicates
[13] = HEK-293T, Table S2, several values per compound, read-out: BCL6 NanoBRET IC90 Geometric Mean
[14] = supplement, read-out: BCL6 NanoBRET IC50 Geometric Mean
[15] = HEK-293T, geometric mean of at least three replicates, read-out: NanoBRET IC90
[16] = Table S2, several values per compound, read-out: BCL6 NanoBRET IC90 Geometric Mean
[17] = supplement, read-out: BCL6 TR-FRET IC50 Geometric Mean

Compound	IC90 ([1]; Table S1) [nM]	IC50 [1, 8] [nM]	IC90 [2, 9] [nM]	IC50 [2, 11]	IC50 [2, 12]	BCL6 TR-FRET pIC50 mean ([1]; Table S1)	BCL6 NanoBRET pIC50 mean ([2]; Table S2)	IC50 [2, 14] [nM]	IC50 [1, 7] [nM]	other results
Cn1c(=O)c2c(c3cc(Nc4nc(N5C6COCC5CC(O)C6)ncc4Cl)ccc31)N[C@@H](C1CC1)C(F)(F)CO2 (stereo partly drawn) [compound 8, (S)-10-((5-Chloro-2-((1R,5S,7R)-7-hydroxy-3-oxa-9-azabicyclo[3.3.1]-nonan-9-yl)pyrimidin-4-yl)amino)-2-cyclopropyl-3,3-difluoro-7-methyl-1,2,3,4-tetrahydro-[1,4]oxazepino[2,3-c]quinolin-6(7H)-one]	7.6	1.3	–	–	–	–	–	–	1.31	–
Cn1c(=O)c2c(c3cc(Nc4nc(N5C6CCC5COC6)ncc4Cl)ccc31)N[C@@H](C1CC1)C(F)(F)CO2 [compound 4, (S)-10-((2-(3-Oxa-8-azabicyclo[3.2.1]octan-8-yl)-5-chloropyrimidin-4-yl)amino)-2-cyclopropyl-3,3-difluoro-7-methyl-1,2,3,4-tetrahydro-[1,4]oxazepino[2,3-c]quinolin-6(7H)-one]	10.2	1.4	142	10.7 nM and 11 nM	12.3 nM and 8.2 nM and 12.1 nM	–	7.9696	–	1.51	IC90 [2, 13]: 185 nM; calculated free (unbound) cellular IC90 ([2]; HEK-293T, calculated free cellular IC90 from NanoBRET assay): 42 nM; IC90 [2, 15]: 143 nM; IC90 [2, 16]: 101 nM and 154 nM
C[C@H]1C[C@@H](O)CN(c2ncc(Cl)c(Nc3ccc4c(c3)c3c(c(=O)n4C)OCC(F)(F)[C@H](C4CC4)N3)n2)C1 [CCT373566]	–	–	–	–	–	–	–	–	–	IC50 ([1]; read-out: BCL6 TR-FRET IC50 Geometric Mean): 2.2 nM; MSD degrader assay [OCI-Ly1] Dmax [3]: 92%; DC50 [3]: 0.7 nM; Aq. Sol. [4]: 10 µM; CACO-2 A-B [5]: 3.2e-06 cm/s; CACO-2 (ER) [5]: 13
C[C@@H]1C[C@H](O)CN(c2ncc(Cl)c(Nc3ccc4c(c3)c3c(c(=O)n4C)OCC(F)(F)[C@H](C4CC4)N3)n2)C1 [CCT373567]	–	–	–	–	–	–	–	25.9	–	IC50 ([1]; BCL6 TR-FRET IC50 Geometric Mean): 2.8 nM; DC50 [3]: > 10000 nM; Aq. Sol. [4]: 8 µM; CACO-2 A-B [5]: < 3e-06 cm/s; CACO-2 (ER) [5]: > 16
(2S)-10-((2-(8-Acetyl-3,8-diazabicyclo[3.2.1]octan-3-yl)-5-chloropyrimidin-4-yl)amino)-2-cyclopropyl-3,3-difluoro-7-methyl-1,2,3,4-tetrahydro-[1,4]oxazepino[2,3-c]quinolin-6(7H)-one [compound 6]	4.6	0.9	–	26.9 nM	27 nM and 30 nM and 24.1 nM	9.0422	7.57	–	–	CLint H/M/R [6]: 214 μLmin^-1mg^-1; IC90 [2, 16]: 189 nM and 229 nM and 239 nM; IC90 ([2]; Table S2, read-out: BCL6 NanoBRET IC90 individual replicates): 218 nM
Cn1c(=O)c2c(c3cc(Nc4ccnc(Cl)c4C#N)ccc31)N[C@@H](C1CC1)C(F)(F)CO2 [compound 14]	30.1	4.8	124	–	14.7 nM and 10.4 nM (2×)	–	7.9327	11.7	3.95	–

Second part, led by results:

IC90 ([1]; Table S1) [nM]	IC50 [1, 8] [nM]	IC90 [2, 9] [nM]	IC50 [2, 11]	IC50 [2, 12]	BCL6 TR-FRET pIC50 mean ([1]; Table S1)	BCL6 NanoBRET pIC50 mean ([2]; Table S2)	IC50 [2, 14] [nM]	Compound	IC50 [1, 7] [nM]	other results
34.1	3.7	386	38 nM	26 nM and 57.5 nM and 55.3 nM	–	–	–	COC1CN(c2ncc(Cl)c(Nc3ccc4c(c3)c3c(c(=O)n4C)OCC(F)(F)[C@H](C4CC4)N3)n2)C1 [compound 10, (S)-10-((5-Chloro-2-(3-methoxyazetidin-1-yl)pyrimidin-4-yl)amino)-2-cyclopropyl-3,3-difluoro-7-methyl-1,2,3,4-tetrahydro-[1,4]oxazepino[2,3-c]quinolin-6(7H)-one]	3.93	IC50 [2, 10]: 43.6 nM
158	18.5	639	–	129 nM	7.7332	6.8907	129	Cc1nccc(Nc2ccc3c(c2)c2c(c(=O)n3C)OCC(F)(F)[C@H](C3CC3)N2)c1Cl [compound 16, (S)-10-((3-chloro-2-methylpyridin-4-yl)amino)-2-cyclopropyl-3,3-difluoro-7-methyl-1,2,3,4-tetrahydro-[1,4]oxazepino[2,3-c]quinolin-6(7H)-one]	–	IC90 [2, 13]: 639 nM
50.2	5.7	444	40 nM	56.7 nM and 28.4 nM and 87.3 nM	–	–	–	Cn1c(=O)c2c(c3cc(Nc4nc(N5CC(F)C5)ncc4Cl)ccc31)N[C@@H](C1CC1)C(F)(F)CO2 [compound 13, (S)-10-((5-Chloro-2-(3-fluoroazetidin-1-yl)pyrimidin-4-yl)amino)-2-cyclopropyl-3,3-difluoro-7-methyl-1,2,3,4-tetrahydro-[1,4]oxazepino[2,3-c]quinolin-6(7H)-one]	6.2	IC50 [2, 10]: 52 nM
45.4	5.5	1620	149 nM	229 nM and 48.1 nM and 302 nM	8.2581	6.8258	149	Cn1c(=O)c2c(c3cc(Nc4nc(N5CCC5)ncc4Cl)ccc31)N[C@@H](C1CC1)C(F)(F)CO2 [compound 9, (S)-10-((2-(Azetidin-1-yl)-5-chloropyrimidin-4-yl)amino)-2-cyclopropyl-3,3-difluoro-7-methyl-1,2,3,4-tetrahydro-[1,4]oxazepino[2,3-c]quinolin-6(7H)-one]	–	–
46.6	5	385	55 nM	73.6 nM and 63.9 nM and 34.7 nM	8.3025	7.2623	54.7	Cn1c(=O)c2c(c3cc(Nc4nc(N5CC(C#N)C5)ncc4Cl)ccc31)N[C@@H](C1CC1)C(F)(F)CO2 [compound 12, (S)-1-(5-Chloro-4-((2-cyclopropyl-3,3-difluoro-7-methyl-6-oxo-1,2,3,4,6,7-hexahydro-[1,4]oxazepino[2,3-c]quinolin-10-yl)amino)pyrimidin-2-yl)azetidine-3-carbonitrile]	–	IC90 [2, 13]: 532 nM; IC90 [2, 16]: 398 nM and 270 nM
201	21	616	108 nM	99.9 nM and 125 nM and 99.5 nM	7.6837	6.9685	108	Cn1c(=O)c2c(c3cc(Nc4ccnc(Cl)c4F)ccc31)N[C@@H](C1CC1)C(F)(F)CO2 [compound 18, (S)-10-((2-chloro-3-fluoropyridin-4-yl)amino)-2-cyclopropyl-3,3-difluoro-7-methyl-1,2,3,4-tetrahydro-[1,4]oxazepino[2,3-c]quinolin-6(7H)-one]	–	IC50 [1, 17]: 20.7 nM; IC90 [2, 13]: 625 nM; IC90 [2, 16]: 511 nM and 732 nM
85.4	10	175	31 nM	61.1 nM and 18.2 nM and 26.8 nM	–	7.5086	–	Cn1c(=O)c2c(c3cc(Nc4nc(N5CC(F)(F)C5)ncc4Cl)ccc31)N[C@@H](C1CC1)C(F)(F)CO2 [compound 11, (S)-10-((5-Chloro-2-(3,3-difluoroazetidin-1-yl)pyrimidin-4-yl)amino)-2-cyclopropyl-3,3-difluoro-7-methyl-1,2,3,4-tetrahydro-[1,4]oxazepino[2,3-c]quinolin-6(7H)-one]	–	IC50 [1, 17]: 10.3 nM; IC90 [2, 15]: 175 nM
19.9	3	98.7	12.5 nM	9.6 nM and 14.7 nM and 14 nM	8.527	7.9026	–	Cn1c(=O)c2c(c3cc(Nc4nc(N5CC6CCC(C5)O6)ncc4Cl)ccc31)N[C@@H](C1CC1)C(F)(F)CO2 [compound 5, (S)-10-((2-(8-Oxa-3-azabicyclo[3.2.1]octan-3-yl)-5-chloropyrimidin-4-yl)amino)-2-cyclopropyl-3,3-difluoro-7-methyl-1,2,3,4-tetrahydro-[1,4]oxazepino[2,3-c]quinolin-6(7H)-one]	–	–
